In brackets after ≈: the same amount, converted by molar mass. Read-outs that look alike come from different tables or passages of the source. Square brackets hold non-standard residues; d marks the D form. Peptide text beside a SMILES is read from it. Ahp(2) = CCCCC[C@H](N)C(=O)O; NMeM = CN[C@@H](CCSC)C(=O)O; Pip = O=C(O)[C@@H]1CCCCN1; Dap = NC[C@H](N)C(=O)O; Aib = CC(C)(N)C(=O)O
Legend:
S. aureus USA300 = assay: MIC assay, S. aureus USA300; type: cell-based, Staphylococcus aureus; details: Table 7
Description: (§1) Bacterial growth conditions. LB or Mueller Hinton II cation-adjusted broth (MHB II, BBL 212322) was prepared according to manufacturer's instructions and supplemented with arabinose at 0.02% for overnight growth or at indicated concentrations in the description of the figures. Bacterial cultures were grown at 37° C. When appropriate, media was supplemented with kanamycin (50 μg/mL), carbenicillin (50 μg/mL), chloramphenicol (12.5 or 25 μg/mL), hygromycin (200 μg/mL), and/or gentamicin (10 μg/mL).
(§2) Peptide sensitivity and MIC assays. Lyophilized peptides (Smartox Biotechnology, CPC Scientific. ABclonal) were solubilized to 10 mM in Tris buffer, pH 8, prior to making a 2-fold dilution series in MHBII cation adjusted broth with highest final assay concentration of 400-800 μM. Bacteria were grown to log phase and added to final OD600˜0.001. The final EDTA concentration was 0.5 mM for E. coli strains and 0.125 mM for USA300. The final volume of 10 μL/well in a 384 well black, clear bottom plate (Corning) was spun <1 min at <250×g and then incubated at 37° C. After 4 h, an equal volume (10 μL) of BacTiter-Glo™ (Promega) was added to each well and luminescence was read after 5 min on an EnVision plate reader (PerkinElmer). To measure the minimal inhibitory concentrations (MICs), bacteria from fresh overnight plates or log phase cultures were diluted with or without EDTA and peptides as described above to final OD600˜0.0002. Plates were incubated at 37° C. for 20 h before measuring OD600 with an EnVision plate reader.

E. coli imp4213 = assay: MIC assay, E. coli imp4213; type: cell-based, Escherichia coli; details: Table 7
Description: as §1, §2

E. coli BW25113 = type: cell-based, Escherichia coli
Description: as §1, §2

Compound | MIC S. aureus USA300 (S. aureus USA300) [µM] | MIC E. coli imp4213 (E. coli imp4213) [µM] | MIC E. coli BW25113 (E. coli BW25113; BW25113) [µM] | MIC E. coli BW25113 (E. coli BW25113; Table 8) [µM]
Ac-YPMTARRFLEKRGL-NH2 [compound 45] | >800 | 100 |  | 
Ac-YPMTARHFLEKHGL-NH2 [compound 33] | >800 | 800 |  | 
CSCC[C@H](NC(=O)[C@@H]1CCCN1C(=O)[C@H](Cc1ccc(O)cc1)NC(C)=O)C(=O)N[C@@H](CCCNC(=N)N)C(=O)N[C@@H](Cc1ccccc1)C(=O)N[C@@H](CN)C(=O)N[C@@H](CCCNC(=N)N)C(=O)N[C@@H](Cc1ccccc1)C(=O)N[C@@H](CC(C)C)C(=O)N[C@@H](CCC(=O)O)C(=O)N[C@@H](CCCCN)C(=O)N[C@@H](Cc1c[nH]c2ccccc12)C(=O)NCC(=O)N[C@@H](CC(C)C)C(=O)N[C@@H](CC(C)C)C(=O)N[C@@H](CCCNC(=N)N)C(N)=O [compound 105] (Ac-YPMRF[Dap]RFLEKWGLLR-NH2) |  |  | 50 (≈ 107 µg/mL) | 
Ac-YPMTARRFLRKHGL-NH2 [compound 38] | >800 | 100 |  | 
Ac-RPMTWRRWLEKYGL-NH2 [compound 205] |  |  | 200.0 | 
Ac-YPWTARRFLEKHGL-NH2 [compound 24] | >800 | 400 |  | 
Ac-YPMTARRFWEKHGL-NH2 [compound 35] | >800 | 400 |  | 
Ac-APMTARRFLEKHGL-NH2 [compound 16] | >800 | 100 |  | 
CCCCC[C@H](NC(=O)[C@H](CCCCN)NC(=O)[C@H](C)NC(=O)[C@H](CC(C)C)NC(=O)[C@H](Cc1c[nH]c2ccccc12)NC(=O)[C@H](CCCNC(=N)N)NC(=O)[C@H](CCCNC(=N)N)NC(=O)[C@H](C)NC(=O)[C@@H](NC(=O)[C@H](CCSC)NC(=O)[C@@H]1CCCN1C(=O)[C@H](CCCNC(=N)N)NC(C)=O)[C@@H](C)O)C(=O)NCC(=O)N[C@@H](CC(C)C)C(N)=O [compound 224] (Ac-RPMTARRWLAK[Ahp(2)]GL-NH2) |  |  |  | 100.0 (≈ 172 µg/mL)
Ac-YPMSARRFLEKHGL-NH2 [compound 26] | >800 | 800 |  | 
Ac-YPMTRRRFLEKHGL-NH2 [compound 29] | >800 | 800 |  | 
Ac-YPMTYRRFLEKHGL-NH2 [compound 27] | >800 | 400 |  | 
CSCC[C@@H](C(=O)N[C@@H](CN)C(=O)N[C@@H](Cc1ccccc1)C(=O)N[C@@H](CCCNC(=N)N)C(=O)N[C@@H](CCCNC(=N)N)C(=O)N[C@@H](Cc1ccccc1)C(=O)N[C@@H](CC(C)C)C(=O)N[C@@H](CCC(=O)O)C(=O)N[C@@H](CCCCN)C(=O)N[C@@H](Cc1c[nH]c2ccccc12)C(=O)NCC(=O)N[C@@H](CC(C)C)C(=O)N[C@@H](CC(C)C)C(=O)N[C@@H](CCCNC(=N)N)C(N)=O)N(C)C(=O)[C@@H]1CCCN1C(=O)[C@H](Cc1ccc(O)cc1)NC(C)=O [compound 95] (Ac-YP[NMeM][Dap]FRRFLEKWGLLR-NH2) |  |  |  | 50.0 (≈ 108 µg/mL)
Ac-YPMAARRFLEKHGL-NH2 [compound 25] | >800 | 800 |  | 
Ac-YPMTARRFLEKKGL-NH2 [compound 46] | >800 | 100 |  | 
CSCC[C@H](NC(=O)[C@@H]1CCCCN1C(=O)[C@H](CCCNC(=N)N)NC(C)=O)C(=O)N[C@H](C(=O)N[C@@H](C)C(=O)N[C@@H](CCCNC(=N)N)C(=O)N[C@@H](CCCNC(=N)N)C(=O)N[C@@H](Cc1c[nH]c2ccccc12)C(=O)N[C@@H](CC(C)C)C(=O)N[C@@H](C)C(=O)N[C@@H](CCCCN)C(=O)N[C@@H](CCCNC(=N)N)C(=O)NCC(=O)N[C@@H](CC(C)C)C(N)=O)[C@@H](C)O [compound 221] (Ac-R[Pip]MTARRWLAKRGL-NH2) |  |  | 200.0 (≈ 353 µg/mL) | 
Ac-YPMTARRFLAKHGL-NH2 [compound 36] | >800 | 100 |  | 
Ac-YPMTWRRFLEKHGL-NH2 [compound 28] | >800 | 50 |  | 
CSCC[C@H](NC(=O)[C@@H]1CCCN1C(=O)[C@H](CCCNC(=N)N)NC(C)=O)C(=O)N[C@H](C(=O)NC(C)(C)C(=O)N[C@@H](CCCNC(=N)N)C(=O)N[C@@H](CCCNC(=N)N)C(=O)N[C@@H](Cc1c[nH]c2ccccc12)C(=O)N[C@@H](CC(C)C)C(=O)N[C@@H](C)C(=O)N[C@@H](CCCCN)C(=O)N[C@@H](CCCNC(=N)N)C(=O)NCC(=O)N[C@@H](CC(C)C)C(N)=O)[C@@H](C)O [compound 220] (Ac-RPMT[Aib]RRWLAKRGL-NH2) |  |  | 100.0 (≈ 177 µg/mL) | 
Ac-FPMTARRFLEKHGL-NH2 [compound 17] | >800 | 200 |  | 
Ac-YPMTARRFLERHGL-NH2 [compound 41] | >800 | 100 |  | 
Ac-YPMTARRFLEHHGL-NH2 [compound 40] | >800 | 400 |  | 

— patent publication US20220135622A1, “ANTIBACTERIAL PEPTIDES AND METHODS OF USE” (priority 2019, published 2022)
